What is called Ki is the equilibrium dissociation constant of an inhibitor or competing ligand from its target. Higher therefore signals weaker binding.

The target in the assay is human emopamil binding protein and human 7-dehydrocholesterol reductase co-expressing cells (hEBP-DHCR7 membrane) (Homo sapiens (Human), UniProt Q15125). Briefly: Radioligand filter binding assay on hEBP-DHCR7 membrane. As to conditions: [3H]-(S)-6-(2-Methyl-3-(6-(trifluoromethyl)pyridin-3-yl)propyl)-2-thia-6-azaspiro[3.4]octane 2,2-dioxide radioligand, HEK293 membrane co-expressing hEBP and hDHCR7. The gist of the method: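 HEK293 cells transiently co-expressing human EBP and DHCR7 supplied whole-cell membranes (10 μg/well), incubated 3 h at 22 °C with [3H]-labelled spiro-octane dioxide ligand (added at 25 nM) and compound (0.06-5000 nM final, 8 doses, n=2). Bound ligand was collected on PEI-treated GF/B filters and counted by scintillation. IC50 was Hill-fitted from % inhibition and reported as Ki.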
human emopamil binding protein and human 7-dehydrocholesterol reductase co-expressing cells (hEBP-DHCR7 membrane), sequence (Q15125 whole entry): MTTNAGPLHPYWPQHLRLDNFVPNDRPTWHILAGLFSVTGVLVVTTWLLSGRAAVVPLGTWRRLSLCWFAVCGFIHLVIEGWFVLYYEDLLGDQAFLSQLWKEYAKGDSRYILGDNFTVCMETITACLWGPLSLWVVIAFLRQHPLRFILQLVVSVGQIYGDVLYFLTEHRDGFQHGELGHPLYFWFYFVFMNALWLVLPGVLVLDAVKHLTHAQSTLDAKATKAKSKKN
`Cn1nc(C(F)(F)F)cc1[C@H]1CC[C@H](N2CCC3(CC2)CS(=O)(=O)C3)CC1` [Compound 25B, 7-((1r,4r)-4-(1-methyl-3-(trifluoromethyl)-1H-pyrazol-5-yl)cyclohexyl)-2-thia-7-azaspiro[3.5]nonane 2,2-dioxide]: the Ki was determined as 270 nM. This counts as sub-micromolar.

Regarding `O=S1(=O)CC2(CCN(C3CCN(c4ncc(C(F)(F)F)cc4F)CC3)C2)C1` [Compound 32, 6-(1-(3-fluoro-5-(trifluoromethyl)pyridin-2-yl)piperidin-4-yl)-2-thia-6-azaspiro[3.4]octane 2,2-dioxide], the Ki stood at 11 nM. This Ki is about 25-fold lower than that of the compound before.

Compound `Cc1cc(C(F)(F)F)cnc1[C@H]1CC[C@H](N2CCC3(C2)CS(=O)(=O)C3)CC1` [Compound 47B, 6-((1r,4r)-4-(3-methyl-5-(trifluoromethyl)pyridin-2-yl)cyclohexyl)-2-thia-6-azaspiro[3.4]octane 2,2-dioxide] displayed a Ki of 23 nM.

The compound `O=S1(=O)CC2(CCN([C@H]3CC[C@H](c4cc(C(F)(F)F)nn4C4CCC4)CC3)C2)C1` [Compound 23B, 6-((1r,4r)-4-(1-Cyclobutyl-3-(trifluoromethyl)-1H-pyrazol-5-yl)cyclohexyl)-2-thia-6-azaspiro[3.4]octane 2,2-dioxide] registered a Ki of 12 nM. Compared with the last compound, the Ki is about 1.9-fold lower.

In turn, `O=S1(=O)CC2(CCN([C@H]3CC[C@@H](c4cc(C(F)(F)F)nn4C4CC4)CC3)CC2)C1` [Compound 40A, 7-((1r,4r)-4-(1-cyclopropyl-3-(trifluoromethyl)-1H-pyrazol-5-yl)cyclohexyl)-2-thia-7-azaspiro[3.5]nonane 2,2-dioxide] had a Ki of 59 nM.

Compound `CC(C)n1nc(C2CC2)nc1[C@H]1CC[C@H](N2CCC3(C2)CS(=O)(=O)C3)C1` (single isomer, unassigned) [18B*, 6-(3-(3-cyclopropyl-1-isopropyl-1H-1,2,4-triazol-5-yl)cyclopentyl)-2-thia-6-azaspiro[3.4]octane 2,2-dioxide] yielded a Ki of 650 nM.

Turning to `CC(C)n1nc(C2CC2)nc1[C@@H]1CC[C@@H](N2CCC3(C2)CS(=O)(=O)C3)C1` (single isomer, unassigned) [18C*], affinity was put at a Ki of 811 nM.

`CC(C)n1nc(-c2cncc(C(F)(F)F)c2)cc1[C@@H]1CC[C@H](N2CCC3(C2)CS(=O)(=O)C3)C1` (single isomer, unassigned) [13B*]: the affinity corresponds to a Ki of 15 nM. Against the preceding compound, the Ki is about 54-fold lower.

Turning to `O=S1(=O)CC2(CCN([C@H]3CC[C@@H](c4ccc(C(F)(F)F)cc4)CC3)C2)C1` [Compound 3B, 6-((1s,4s)-4-(4-(trifluoromethyl)phenyl)cyclohexyl)-2-thia-6-azaspiro[3.4]octane 2,2-dioxide], the Ki came to 27.5 nM.

Compound `Cn1nc(C(F)(F)F)cc1[C@H]1CC[C@H](N2CC[C@]3(CCS(=O)(=O)C3)C2)CC1` (single isomer, unassigned) [27B*] had a Ki of 180 nM.

Turning to `CC(C)n1nc(C(F)(F)F)cc1[C@H]1CC[C@@H](N2CCC3(C2)CS(=O)(=O)C3)CC1` [Compound 8B, 6-((1s,4s)-4-(1-isopropyl-3-(trifluoromethyl)-1H-pyrazol-5-yl)cyclohexyl)-2-thia-6-azaspiro[3.4]octane 2,2-dioxide], the affinity corresponds to a Ki of 32.9 nM.

As to `O=S1(=O)CC2(CCN([C@@H]3CC[C@@H](c4ccc(C(F)(F)F)nc4)C3)C2)C1` (single isomer, unassigned) [Compound 11B, (Trans)-6-(3-(6-(Trifluoromethyl)pyridin-3-yl)cyclopentyl)-2-thia-6-azaspiro[3.4]octane 2,2-dioxide], the Ki was 35.9 nM.

Consider `O=S1(=O)CC2(CCN([C@@H]3CO[C@@H](c4ccc(C(F)(F)F)cc4)C3)C2)C1` (stereo in doubt) [19B*, 6-((3S,5R)-5-(4-(trifluoromethyl)phenyl)tetrahydrofuran-3-yl)-2-thia-6-azaspiro[3.4]octane 2,2-dioxide], for which the Ki was 20 nM.

In turn, `O=S1(=O)CC2(CCN([C@H]3CC[C@H](c4cc(C(F)(F)F)n(C5CCC5)n4)CC3)C2)C1` [Compound 24, 6-((1r,4r)-4-(1-cyclobutyl-5-(trifluoromethyl)-1H-pyrazol-3-yl)cyclohexyl)-2-thia-6-azaspiro[3.4]octane 2,2-dioxide] came in with a Ki of 11 nM.

`Cc1cc(F)cnc1N1CCC(N2CCC3(C2)CS(=O)(=O)C3)CC1` [Compound 31, 6-(1-(5-fluoro-3-methylpyridin-2-yl)piperidin-4-yl)-2-thia-6-azaspiro[3.4]octane 2,2-dioxide] showed a Ki of 84 nM.

Compound `CC(C)n1nc(C(F)(F)F)cc1[C@@H]1CC[C@H](N2CCC3(C2)CS(=O)(=O)C3)C1` (single isomer, unassigned) [10C*] registered a Ki of 26.6 nM. Compared with the last compound, the Ki is about 3.2-fold lower.

In the case of `CC(C)n1cc(C(F)(F)F)nc1[C@H]1CC[C@@H](N2CCC3(C2)CS(=O)(=O)C3)C1` (single isomer, unassigned) [20C*], the Ki is 420 nM. Compared with the last compound, the Ki is about 16-fold higher.

Regarding `CC(C)n1nc(-c2cncc(OC(F)F)c2)cc1[C@H]1CC[C@H](N2CCC3(C2)CS(=O)(=O)C3)CC1` [Compound 33A, 6-((1r,4r)-4-(3-(5-(Difluoromethoxy)pyridin-3-yl)-1-isopropyl-1H-pyrazol-5-yl)cyclohexyl)-2-thia-6-azaspiro[3.4]octane 2,2-dioxide], the Ki was determined as 34 nM.

Consider `CC(C)n1cc(C(F)(F)F)nc1[C@H]1CC[C@H](N2CCC3(C2)CS(=O)(=O)C3)C1` (single isomer, unassigned) [20A*], for which the affinity, expressed as Ki, was 530 nM.

In turn, `CC(C)n1nc(C(F)(F)F)cc1[C@H]1CC[C@H](N2CCC3(C2)CS(=O)(=O)C3)C1` (single isomer, unassigned) [10A*] came in with a Ki of 18.7 nM. This Ki is about 28-fold lower than that of the compound before.

Consider `CCn1nc(C(F)(F)F)cc1[C@H]1CC[C@H](N2CCC3(C2)CS(=O)(=O)C3)CC1` [Compound 15, 6-((1r,4r)-4-(1-Ethyl-3-(trifluoromethyl)-1H-pyrazol-5-yl)cyclohexyl)-2-thia-6-azaspiro[3.4]octane 2,2-dioxide], for which the affinity corresponds to a Ki of 56 nM.

`Cc1cc(C(F)(F)F)ncc1[C@H]1CC[C@H](N2CCC3(C2)CS(=O)(=O)C3)CC1` [Compound 21B, 6-((1r,4r)-4-(4-Methyl-6-(trifluoromethyl)pyridin-3-yl)cyclohexyl)-2-thia-6-azaspiro[3.4]octane 2,2-dioxide] gave a Ki of 46 nM.

In turn, `O=S1(=O)CC2(CCN(C3CCN(c4ncc(C(F)(F)F)cc4Cl)CC3)C2)C1` [Compound 30, 6-(1-(3-chloro-5-(trifluoromethyl)pyridin-2-yl)piperidin-4-yl)-2-thia-6-azaspiro[3.4]octane 2,2-dioxide] displayed a Ki of 13 nM. This Ki is about 3.5-fold lower than that of the compound before.

`O=S1(=O)CC2(CCN([C@@H]3CO[C@H](c4ccc(C(F)(F)F)cc4)C3)C2)C1` (stereo in doubt) [19C*, 6-((3S,5S)-5-(4-(Trifluoromethyl)phenyl)tetrahydrofuran-3-yl)-2-thia-6-azaspiro[3.4]octane 2,2-dioxide] had a Ki of 18 nM.

For `CCn1nc([C@H]2CC[C@H](N3CCC4(C3)CS(=O)(=O)C4)CC2)cc1C(F)(F)F` [Compound 16, 6-((1r,4r)-4-(1-Ethyl-5-(trifluoromethyl)-1H-pyrazol-3-yl)cyclohexyl)-2-thia-6-azaspiro[3.4]octane 2,2-dioxide], the Ki amounted to 52 nM.

`Cc1nc(C(F)(F)F)ccc1N1CCC(N2CCC3(C2)CS(=O)(=O)C3)CC1` [Compound 29, 6-(1-(2-methyl-6-(trifluoromethyl)pyridin-3-yl)piperidin-4-yl)-2-thia-6-azaspiro[3.4]octane 2,2-dioxide] yielded a Ki of 230 nM.

On to `O=S1(=O)CC2(CCN(C3CCN(c4ccc(C(F)(F)F)cc4)CC3)C2)C1` [Compound 4, 6-(1-(4-(trifluoromethyl)phenyl)piperidin-4-yl)-2-thia-6-azaspiro[3.4]octane 2,2-dioxide], for which the Ki is 51.8 nM.

`Cc1cc(C(F)(F)F)ncc1N1CCC(N2CCC3(C2)CS(=O)(=O)C3)CC1` [Compound 28, 6-(1-(4-Methyl-6-(trifluoromethyl)pyridin-3-yl)piperidin-4-yl)-2-thia-6-azaspiro[3.4]octane 2,2-dioxide] had a Ki of 30 nM. This Ki is about 1.7-fold lower than that of the compound before.

Compound `O=S1(=O)CC2(CCN(C3CC[C@H](c4ccc(C(F)(F)F)nc4)C3)C2)C1` (single isomer, unassigned) [11D*] returned a Ki of 40 nM.

On to `Cn1nc(C(F)(F)F)cc1[C@H]1CC[C@H](N2CC[C@]3(CCS(=O)(=O)C3)C2)CC1` (single isomer, unassigned) [38C*], for which the affinity, expressed as Ki, was 260 nM. Against the preceding compound, the Ki is about 6.5-fold higher.

The compound `O=S1(=O)CC2(CCN([C@H]3CC[C@H](c4ccc(C(F)(F)F)cc4)CC3)C2)C1` [Compound 3A, 6-((1r,4r)-4-(4-(trifluoromethyl)phenyl)cyclohexyl)-2-thia-6-azaspiro[3.4]octane 2,2-dioxide] came in with an inhibition constant Ki of 15.8 nM. This Ki lies about 16-fold lower than the previous one.

In turn, `O=S1(=O)CC2(CCN([C@@H]3CC[C@@H](c4ccc(C(F)(F)F)cc4)C3)C2)C1` [Compound 1B, 6-((1R,3R)-3-(4-(trifluoromethyl)phenyl)cyclopentyl)-2-thia-6-azaspiro[3.4]octane 2,2-dioxide] had an inhibition constant Ki of 26.8 nM.

As for `CC(C)n1nc(C(F)(F)F)cc1[C@H]1CC[C@@H](N2CCC3(C2)CS(=O)(=O)C3)C1` (single isomer, unassigned) [10B*], the affinity, expressed as Ki, was 21.3 nM.

As for `O=S1(=O)CC2(CCN([C@@H]3CCN(c4ccc(C(F)(F)F)nc4)C3)C2)C1` (single isomer, unassigned) [9B*], the affinity, expressed as Ki, was 245 nM.

In turn, `O=S1(=O)CC2(CCN([C@H]3CC[C@H](c4cc(C(F)(F)F)nn4C4CC4)CC3)C2)C1` [Compound 12A, 6-((1r,4r)-4-(1-Cyclopropyl-3-(trifluoromethyl)-1H-pyrazol-5-yl)cyclohexyl)-2-thia-6-azaspiro[3.4]octane 2,2-dioxide] registered a Ki of 34 nM.

In the case of `O=S1(=O)CC2(CCN([C@H]3CCCN(c4ccc(C(F)(F)F)cc4)C3)C2)C1` (single isomer, unassigned) [22B*], the Ki is 58 nM.

`O=S1(=O)CC2(CCN([C@@H]3CC[C@H](c4ccc(C(F)(F)F)nc4)C3)C2)C1` (single isomer, unassigned) [11C*] had a Ki of 35 nM. Compared with the last compound, the Ki is about 1.7-fold lower.

Source of the values: patent publication US20240398781A1, “SPIROCYCLIC CYCLIC MODULATORS OF CHOLESTEROL BIOSYNTHESIS AND THEIR USE FOR PROMOTING REMYELINATION” (GENENTECH, INC., priority 2021, published 2024).
